Usually melting point stands for the temperature of the solid-liquid transition.

`CCCCOCCOc1ccc(-c2cnc(N3CCC(C)C3)c(/C=C(\C)C(=O)O)c2)cc1` (centres undefined) displayed a melting point of 106 to 108 °C.

`COc1ccc(C(=O)Nc2c(Cl)cc(NC(C)=O)cc2Cl)cc1OC1CCCC1` yielded a melting point of 250 to 252 °C. Next, `Cc1ccc2c(Cl)c3ccccc3nc2c1`: 117 to 118 °C; `OCc1cn2c(n1)CN=C(c1ccccn1)c1cc(Cl)ccc1-2`: 206 to 207 °C. The figure for `Cc1ccc(CN2CCN3C(=O)OC(c4ccccc4)(c4ccccc4)C3C2)cc1` (centres undefined) is 154 to 155 °C. Next, `CC(=O)CC1=C(O)CCCC1=O`: 80 to 81 °C; `CCCCC(=O)N(Cc1ccc(OC(F)(F)F)c(Cl)c1)c1cc(F)cc(-c2nnn[nH]2)c1`: 137 °C.

The compound `CCCc1c(OCc2ccc3ncc(CCC(=O)O)c(=O)n3c2)ccc(C(C)=O)c1O` displayed a melting point of 190 to 194 °C.

In turn, `CC(C)CC(=O)C(=O)NCC(=O)c1ccccc1` displayed a melting point of 193 to 195 °C. Next, `CCOC(=O)c1cn(CC)c2cc(N3CCNCC3)c(F)cc2c1=O`: 178 to 180 °C; `O=C1C(c2c[nH]c3ccccc23)=C(c2c[nH]c3ccccc23)C(=O)N1c1ccccc1`: greater than 290 °C. The figure for `COc1ccc(Nc2nc(C)ncc2S(=O)(=O)c2ccc(OCc3ccccc3)cc2)c(C)c1` is 110 to 114 °C; for `CCCn1c(=O)c2c(NC)n[nH]c2n(Cc2cccs2)c1=O` it is greater than 300 °C. Next, `CCCCCCCCCCCCCCOc1cc(OC)cc(N)c1OCOC`: 66 to 67 °C. With `COc1cc(OC)nc(CN2C(=O)C3(COc4cc5c(cc43)OCCO5)c3ccccc32)n1` (centres undefined), the melting point lay in the range of 169 to 170 °C. Next, `CN1CCN(c2nn(C(=O)c3ccccc3)c3ccc(Cl)cc23)CC1`: 105 to 107 °C; `Cc1ccc(NC(=N)Nc2ncccc2OCc2c(F)cccc2Cl)cc1`: 136 to 138 °C; `CCNc1nc(NS(=O)(=O)c2ccc(N)cc2)cc(N2CCC2)n1`: 292 to 293 °C. Turning to `C=CCN(CC=C)c1nc(NC(=O)Cc2cccs2)n2oc(=O)nc2n1`, the melting point was 140 to 142 °C.

For `O=C(O)c1cc(F)ccc1Sc1ccccc1`, the melting point lay within 146 to 148 °C. For the compound `CC(C)(C)OC(=O)NCCCn1ncc2cc(Br)ccc2c1=O`, the melting point was in the range of 130 to 132 °C.

In turn, `CCOC(=O)/C=C/c1cccc(Br)c1` gave a melting point of 26 to 28 °C. Take `CS(=O)(=O)c1ccc(-c2c(-c3ccc(F)cc3)c(C(F)(F)F)nn2-c2ccccc2)cc1`: the melting point fell in the range of 202 to 203 °C. For `COc1cc(OC)c(N2CCCC2)cc1/C=C/C(=O)c1ccc(S(=O)(=O)NCc2ccccn2)cc1`, the melting point fell in the range of 112 to 116 °C. With `CN(C)c1sc2cc(OCc3ccccc3)ccc2c1C(=O)c1ccc(F)c(C(F)(F)F)c1`, the melting point is 164 to 167 °C. Next, `ON=Cc1cccc(OCCN2CCC(Cc3ccccc3)CC2)c1`: 141 to 143 °C; `Cn1cc(OCC(F)(F)F)c(=O)c(-c2cccc(C(F)(F)F)c2)c1`: 97 to 99 °C. `Cc1cc2cnnc(Cl)c2n1CC(C)C` gave a melting point of 96 to 99 °C. The compound `C=CCC(CCC(CC=C)(C(=O)c1ccc(NCCO)cc1)N(C)C)(C(=O)c1ccc(NCCO)cc1)N(C)C` (centres undefined) came in with a melting point of 95 to 96 °C. The figure for `CN(C)CC1CN(C)C(=S)c2cccnc2O1` (centres undefined) is 178 to 179 °C; for `CNCc1nnc2n1-c1ccc(Cl)cc1C(c1ccccc1F)=CC2` it is 170 to 171 °C; for `Cc1cc(N)ccc1NCCNC(N)=O` it is 143 °C. Turning to `O=C1C(=NO)SCCN1Cc1ccccc1`, the melting point was 225 to 227 °C. The figure for `CCC(=O)Nc1ccc2c(c1)C(=O)c1cc(NC(=O)CC)ccc1C2=O` is 291 °C.

With `CC(=O)Oc1cccc(-c2csc3nc(C45CC6CC(CC(C6)C4)C5)cn23)c1`, the melting point was 199 to 201 °C. As for `COCc1c(C(=O)OC(C)C)ncc2[nH]c3cccc(Oc4ccccc4)c3c12`, the melting point fell in the range of 201 to 203 °C.

As for `CN1CCCC1=NCCSc1cc2ccccc2[nH]1`, the melting point lay within 175 to 177 °C.

Consider `CN1C(=O)Cc2cc(CCCl)ccc21`, for which the melting point came to 136 °C. Take `O=C(c1ccc([N+](=O)[O-])cc1)N1CCC(OCc2ccc(F)cc2)CC1`: the melting point came out at 120 °C. The figure for `O=c1ccsc2c1[nH]c1ccc(Br)cc12` is 334 to 337 °C.

Turning to `COC(=O)Nc1ccc2ccccc2c1-c1c(P(c2ccccc2)c2ccccc2)ccc2ccccc12`, the melting point turned out to be 92.1 °C. Turning to `CC1C(=O)N(Nc2ccccc2)C1C#C[Si](C)(C)C` (centres undefined), the melting point was found to be 136 °C. The compound `COc1cc(F)c(CN(C=O)CCc2ccc(O)cc2)cc1O` gave a melting point of 153 to 168 °C. On to `CC1(C)C(=O)N(c2ccc([N+](=O)[O-])c(C(F)(F)F)c2)C(=O)N1CC=CCN1C(=O)N(c2ccc([N+](=O)[O-])c(C(F)(F)F)c2)C(=O)C1(C)C`, for which the melting point was 191 to 193 °C. The figure for `O=C(O)CCCCc1cc(O)c(O)cc1[N+](=O)[O-]` is 111 to 114 °C; for `CS(=O)(=O)Oc1ccc(Oc2ccccc2)cc1CC(=O)O` it is 121 °C. `COc1ccc(F)cc1N1CCN(CCCN2Cc3cc(Cl)c(S(N)(=O)=O)cc3C2=O)CC1` had a melting point of 158 to 163 °C. Regarding `Cn1ncc(-c2nn(-c3cccc(C(F)(F)F)c3)ccc2=O)c1-c1ccccc1`, the melting point lay in the range of 193 to 195 °C.

As to `CCOC(=O)C(=Cc1cccc(O)c1)C(=O)OCC`, the melting point is 72 to 74 °C.

`CC(C)Cc1ccc2ccc(=O)[nH]c2n1` came in with a melting point of 135 to 137 °C. `Cc1ccc(-c2ccc(C(=O)Nc3cc4ncc(CN5CCCC5)cc4cc3C)cn2)cc1` displayed a melting point of 214 to 218 °C. As to `CCOC(=O)c1oc(C(C)(C)C)cc1N`, the melting point was 44 to 45 °C. The figure for `NC(=O)Cc1ccc(OCCc2coc(-c3ccccc3)n2)cc1` is 180 to 184 °C.

Turning to `O=C(/C=C/c1ccc(O)c(OC(F)(F)F)c1)/C=C/c1ccc(O)c(OC(F)(F)F)c1`, the melting point was 103 to 105 °C. `C=C(C)C[C@H]1CC(C)=CCN1c1ccccc1` showed a melting point of 55 to 57 °C. Regarding `COC(=O)CCc1cnoc1-c1ccc([N+](=O)[O-])cc1`, the melting point lay in the range of 118 to 119 °C.

`NC(=O)c1ncn2c1CN=C(c1ccccc1)c1cc(Cl)ccc1-2` returned a melting point of 295 to 296 °C.

`Cn1c(C(F)(F)F)cc(=O)n(-c2cc(OS(C)(=O)=O)c(Cl)cc2F)c1=O` yielded a melting point of 176 to 178 °C. Next, `CC1Oc2ccc(C3=NNC(=O)CC3)cc2NC1=O` (centres undefined): 275 to 276 °C.

Consider `CCc1cc(C(C)=O)c(O)cc1OCCCCCC(C)(C)C(N)=O`, for which the melting point lay within 73 to 74 °C. The figure for `O=C(O)C(Cc1ccc(Cl)cc1Cl)c1c(Cl)cccc1Cl` (centres undefined) is 220 to 222 °C; for `CCOc1ccc(OCCN2CCN(c3cc(Cl)nnc3Cl)CC2)cc1` it is 93 to 95 °C; for `ON=c1cc(-c2cc3cccn3cn2)oc2cccc(C(F)(F)F)c12` it is 255 to 257 °C. The figure for `FC(F)(c1ccccc1)C(F)(F)c1ccc(Br)cc1` is 80 to 82 °C.

(Values after a melting point compilation (Tetko et al.; mined from patent text by program, amines drawn as free bases though some values may be those of a salt).)
